Experimental data reported in patent US20110034472A1, “Novel Compounds for Treatment of Cancer and Disorders Associated With Angiogenesis Function” (UNIVERSITY OF SOUTHERN CALIFORNIA, priority 2004, published 2011).
Entries after “also recorded” stand apart in the source; their conditions may differ. Where a name gives a salt, the structure may show the parent alone. Read-outs that look alike come from different tables or passages of the source.

Columns and labels:
[1] = system: cancer cells; test: Colony formation assay; format: cell-based; conditions: doses ≧1 uM; hydrochloride
Protocol: FIG. 32. […] (A) The IC50 values of SC161′ range from 0.3 to 4 uM in representative breast, colon, and prostate cell lines using MTT assay.
Colony formation assays were also performed to confirm the activity of these compounds as described.^10 Briefly, cells were plated in 6-well plates at a density of 100 cells/well and allowed to attach. The next day, serial dilutions of the corresponding compounds were added and allowed to incubate for 24 h. After exposure, cells were washed in PBS and cultured in free media until colonies were formed (8-10 days). Cells were subsequently washed, fixed with a 1% glutaraldehyde solution for 30 min, and stained with a solution of crystal violet (2%) for 30 min. After staining, cells were thoroughly washed with water. Colonies were imaged on the Versa-Doc Imaging System (Bio-Rad) and counted using the Quantity One quantitation software package (Bio-Rad). The data reported represent means of at least three independent experiments.

[2] = system: human cancer cell lines (MDA-MB-435 and three colon cancer cells); test: MTT assay, panel of breast, colon and prostate cell lines (Example V); format: cell-based; conditions: for IC50: Homo sapiens, MDA-MB-435, representative breast, colon, and prostate cell lines, MTT assay, read-out: IC50 values range
Protocol: All new compounds were tested in four human cancer cell lines, a breast cancer cell, MDA-MB-435, and three colon cancer cells.
(§1) Cytotoxicity was assessed by a 3-(4,5-dimethylthiazol-2-yl)-2,5-diphenyltetrazolium bromide (MTT) assay as previously described.^9 Briefly, cells were seeded in 96-well microtiter plates and allowed to attach. Cells were subsequently treated with continuous exposure to the corresponding drug for 72 h. An MTT solution (at a final concentration of 0.5 mg/mL) was added to each well, and cells were incubated for 4 h at 37° C. After removal of the medium, DMSO was added and the absorbance was read at 570 nm. All assays were done in triplicate. The IC50 was then determined for each drug from a plot of log (drug concentration) versus percentage of cells killed.

[3] = system: HT29 colon cancer cells; test: MTT cytotoxicity assay, HT 29; format: cell-based, human; conditions: 72 h
From the text: (§2) Human breast cancer cells MDA-MB-435 and colon cancer HT29, p53 mutant were purchased from the American Type Cell Culture (Manassas, Va.). The HCT116 P53^+/+ and HCT116 P53^−/− cells were kindly provided by Dr. Bert Vogelstein (Johns Hopkins Medical Institutions, Baltimore, Md.). Human prostate cancer cells, LNCaP, were kindly provided by Richard Cote (University of Southern California Keck School of Medicine). Cells were maintained as monolayer cultures in RPMI 1640 media supplemented with 10% fetal bovine serum (Gemini-Bioproducts, Woodland, Calif.) and 2 mmol/L L-glutamine at 37° C. in a humidified atmosphere of 5% CO2. To remove the adherent cells from the flask for passaging and counting, cells were washed with PBS without calcium or magnesium, incubated with a small volume of 0.25% trypsin-EDTA solution (Sigma-Aldrich, St. Louis, Mo.) for 5-10 min, and washed with culture medium and centrifuged. All experiments were performed using cells at exponential growth stage. Cells were routinely checked for mycoplasma contamination using a PCR-based assay (Stratagene, Cambridge, UK).
as §1

[4] = system: HCT 116 p53^+/+ colon cancer cells; test: MTT cytotoxicity assay, HCT 116 p53+/+; format: cell-based, human; conditions: 72 h
From the text: as §2, §1

[5] = system: HCT 116 p53^−/− colon cancer cells; test: MTT cytotoxicity assay, HCT 116 p53-/-; format: cell-based, human; conditions: 72 h
From the text: as §2, §1

[6] = system: MDA-MB-435 breast cancer cells; test: MTT cytotoxicity assay, MDA-MB-435; format: cell-based, human; conditions: for IC50: MTT, 72 h, read-out: IC50
Protocol: The sensitivity of a panel of seven human cancer cell lines to SC144 was assessed by MTT-assay. […] The sensitivity towards SC144 was time- and dose-dependent.
(§3) Cytotoxicity was assessed by a 3-(4,5-dimethylthiazol-2-yl)-2,5-diphenyltetrazolium bromide assay as previously described (Carmichael et al. (1987) Cancer Res. 47:936-42). Briefly, cells were seeded in 96-well microtiter plates (PC3 and DU145 at 5,000 cells/well and LNCaP at 10,000 cells/well; breast and ovarian cells at 4,000 cells/well) and allowed to attach. Cells were subsequently treated with a continuous exposure to the corresponding drug for 72 hours. A 3-(4,5-dimethylthiazol-2-yl)-2,5-diphenyltetrazolium bromide solution (at a final concentration of 0.5 mg/mL) was added to each well and cells were incubated for 4 hours at 37° C. After removal of the medium, DMSO was added and the absorbance was read at 570 nm. All assays were done in triplicate. The IC50 was then determined for each drug from a plot of log(drug concentration) versus percentage of cell kill.
as §1

[7] = system: LNCaP prostate cancer cells; test: MTT cytotoxicity assay, LNCaP; format: cell-based; conditions: Homo sapiens, hLNCaP, MTT, 72 h, read-out: IC50
Protocol: as §3, §1

O=C(NNc1nc2cccc(F)c2n2cccc12)c1cnccn1 [SC161′, N′-(9-Fluoropyrrolo[1,2-a]quinoxalin-4-yl)pyrazine-2-carbohydrazide hydrochloride]
colony formation [1]: completely blocks colony formation; also recorded: completely abolished cell growth | activity in all cell lines [2]: highly active | IC50 [2]: 0.3 to 4 µM

O=C(NNc1nc2cc(F)ccc2n2cccc12)c1ccccn1 [SC160′, N′-(7-Fluoropyrrolo[1,2-a]quinoxalin-4-yl)pyridine-2-carbohydrazide hydrochloride]
activity in all cell lines [2]: inactive

O=C(NNc1nc2ccccc2n2cccc12)c1cc2ccccc2[nH]1 [SC155, 1H-indole-2-carboxylic acid N′-pyrrolo[1,2-a]quinoxalin-4-yl-hydrazide]
IC50 ([3]; Homo sapiens): > 20 µM | IC50 ([4]; Homo sapiens): > 20 µM | IC50 ([5]; Homo sapiens): > 20 µM | melting point: 186 °C | IC50 ([6]; Homo sapiens): > 20 µM

O=C(NNc1nc2cccc(F)c2n2cccc12)c1cnccn1 (as salt: hydrochloride) [SC161′, N′-(9-Fluoropyrrolo[1,2-a]quinoxalin-4-yl)pyrazine-2-carbohydrazide hydrochloride]
melting point: 248 °C (dec.)

O=C(NNc1nc2ccccc2n2cccc12)c1ccc2[nH]ccc2c1 [SC156, 1H-Indole-5-carboxylic acid N′-pyrrolo[1,2-a]quinoxalin-4-yl-hydrazide]
IC50 ([3]; Homo sapiens): > 20 µM | IC50 ([4]; Homo sapiens): > 20 µM | IC50 ([5]; Homo sapiens): > 20 µM | melting point: 160 °C | IC50 ([6]; Homo sapiens): > 20 µM

NC(CC(=O)NNc1nc2ccccc2n2cccc12)c1ccccc1Cl (centres unmarked) [SC160, 3-Amino-3-(2-chloro-phenyl)-propionic acid N′-pyrrolo[1,2-a]quinoxalin-4-yl-hydrazide]
IC50 ([3]; Homo sapiens): 17 µM | IC50 ([4]; Homo sapiens): > 20 µM | IC50 ([5]; Homo sapiens): > 20 µM | IC50 ([6]; Homo sapiens): > 20 µM | IC50 [7]: > 20 µM

O=C(NNc1nc2cc(F)ccc2n2cccc12)c1ccccn1 (as salt: hydrochloride) [SC160′, N′-(7-Fluoropyrrolo[1,2-a]quinoxalin-4-yl)pyridine-2-carbohydrazide hydrochloride]
melting point: > 280 °C (dec.)

Cc1cc2nc(NNC(=O)c3cnccn3)c3cccn3c2cc1C [SC143, Pyrazine-2-carboxylic acid N′-(7,8-dimethyl-pyrrolo[1,2-a]quinoxalin-4-yl)-hydrazide]
melting point: 116 °C

O=C(NNc1nc2ccccc2n2cccc12)c1ccccc1F [SC166, 2-Fluoro-benzoic acid N′-pyrrolo[1,2-a]quinoxalin-4-yl-hydrazide]
IC50 ([3]; Homo sapiens): 13 ± 2 µM | IC50 ([4]; Homo sapiens): 8 ± 1 µM | IC50 ([5]; Homo sapiens): 11 ± 1 µM | IC50 ([6]; Homo sapiens): 15 ± 1 µM

NC(CC(=O)NNc1nc2ccccc2n2cccc12)c1ccc(Cl)cc1 (centres unmarked) [SC161, 3-Amino-3-(4-chloro-phenyl)-propionic acid N′-pyrrolo[1,2-a]quinoxalin-4-yl-hydrazide]
IC50 ([3]; Homo sapiens): 0.3 ± 0.06 µM | IC50 ([4]; Homo sapiens): 0.4 ± 0.01 µM | IC50 ([5]; Homo sapiens): 0.3 ± 0.07 µM | IC50 ([6]; Homo sapiens): 3 ± 2 µM | IC50 [7]: 0.4 µM

O=C(NNc1nc2ccccc2n2cccc12)c1ccc[nH]1 [SC141, 1H-Pyrrole-2-carboxylic acid N′-pyrrolo[1,2-a]quinoxalin-4-yl-hydrazide]
melting point: 210 to 212 °C

COc1ccccc1C(=O)NNc1nc2ccccc2n2cccc12 [SC159, 2-Methoxy-N′-(H-pyrrolo[1,2-a]quinoxalin-4-yl)benzohydrazide]
IC50 [3]: > 20 µM | IC50 [4]: > 20 µM | IC50 [5]: > 20 µM | IC50 [6]: > 20 µM

O=C(NNc1nc2cc(F)ccc2n2cccc12)c1cnc2ccccc2n1 [SC166′, N′-(7-Fluoropyrrolo[1,2-a]quinoxalin-4-yl)quinoxaline-2-carbohydrazide hydrochloride]
IC50 [2]: 8 to 15 µM

O=C(NNc1nc2ccccc2n2cccc12)C1CSCN1 (centres unmarked) [SC153, Thiazolidine-4-carboxylic acid N′-pyrrolo[1,2-a]quinoxalin-4-yl-hydrazide]
IC50 ([3]; Homo sapiens): 14 ± 1 µM | IC50 ([4]; Homo sapiens): 15 ± 3 µM | IC50 ([5]; Homo sapiens): 10 ± 2 µM | activity against colon cancer lines [2]: moderately active | melting point: 162 °C | activity against the breast cancer line [6]: inactive | IC50 ([6]; Homo sapiens): > 20 µM

Cl.O=C(NNc1nc2cc(F)ccc2n2cccc12)c1cccnc1 [SC162′, N′-(7-Fluoropyrrolo[1,2-a]quinoxalin-4-yl)nicotinyl hydrazide hydrochloride]
activity in all cell lines [2]: inactive

NC(CC(=O)NNc1nc2ccccc2n2cccc12)c1ccc(C(F)(F)F)cc1 (centres unmarked) [SC165, 3-Amino-3-(4-trifluoromethyl-phenyl)-propionic acid N′-pyrrolo[1,2-a]quinoxalin-4-yl-hydrazide]
IC50 ([3]; Homo sapiens): > 20 µM | IC50 ([4]; Homo sapiens): > 20 µM | IC50 ([5]; Homo sapiens): > 20 µM | IC50 ([6]; Homo sapiens): > 20 µM

O=C(NNc1nc2ccccc2n2cccc12)c1c[nH]c2ccccc12 [SC158, 1H-Indole-3-carboxylic acid N′-pyrrolo[1,2-a]quinoxalin-4-yl-hydrazide]
IC50 ([3]; Homo sapiens): > 20 µM | IC50 ([4]; Homo sapiens): > 20 µM | IC50 ([5]; Homo sapiens): > 20 µM | melting point: 162.5 °C | IC50 ([6]; Homo sapiens): > 20 µM

O=C(NNc1nc2ccccc2n2cccc12)c1ccc2cc[nH]c2c1 [SC157, 1H-Indole-6-carboxylic acid N′-pyrrolo[1,2-a]quinoxalin-4-yl-hydrazide]
IC50 ([3]; Homo sapiens): > 20 µM | IC50 ([4]; Homo sapiens): > 20 µM | IC50 ([5]; Homo sapiens): > 20 µM | melting point: 198.5 °C | IC50 ([6]; Homo sapiens): > 20 µM

NCCC(=O)NNc1nc2ccccc2n2cccc12 [SC154, 3-Amino-propionic acid N′-pyrrolo[1,2-a]quinoxalin-4-yl-hydrazide]
IC50 ([3]; Homo sapiens): > 20 µM | IC50 ([4]; Homo sapiens): > 20 µM | IC50 ([5]; Homo sapiens): > 20 µM | melting point: 164.5 °C | IC50 ([6]; Homo sapiens): > 20 µM

O=C(NNc1nc2cc(F)ccc2n2cccc12)c1cnc2ccccc2n1 (as salt: hydrochloride) [SC166′, N′-(7-Fluoropyrrolo[1,2-a]quinoxalin-4-yl)quinoxaline-2-carbohydrazide hydrochloride]
melting point: 280 °C (dec.)
